Data: patent US20230183309A1 (Dana-Farber Cancer Institute, Inc., priority 2019, published 2023)
Entries after “also recorded” stand apart in the source; their conditions may differ. Numbered stars: 1 amine (or outer) side, 2 acyl side, 3 side chain; on linkers, the order of the positions; unused ones are H or OH. Bridge positions count the residues as written; N and C are the ends. Square brackets hold non-standard residues; d marks the D form. code # = α,α-bis(4′-pentenyl)glycine, C=CCCCC(CCCC=C)(N[*:1])C(=O)[*:2]; R8 = C=CCCCCCC[C@@](C)(N)C(=O)O; S8 = C=CCCCCCC[C@](C)(N)C(=O)O; Aib = CC(C)(N)C(=O)O

Columns and labels:
human GLP-1 receptor = human GLP-1 receptor (Homo sapiens, UniProt P43220); conditions: GFP-GLP-1R U2OS cells; FIG. 6A, 6B (lower dose-range 1 µM, 100 nM, 10 nM)
Chain of human GLP-1 receptor (P43220 24-463): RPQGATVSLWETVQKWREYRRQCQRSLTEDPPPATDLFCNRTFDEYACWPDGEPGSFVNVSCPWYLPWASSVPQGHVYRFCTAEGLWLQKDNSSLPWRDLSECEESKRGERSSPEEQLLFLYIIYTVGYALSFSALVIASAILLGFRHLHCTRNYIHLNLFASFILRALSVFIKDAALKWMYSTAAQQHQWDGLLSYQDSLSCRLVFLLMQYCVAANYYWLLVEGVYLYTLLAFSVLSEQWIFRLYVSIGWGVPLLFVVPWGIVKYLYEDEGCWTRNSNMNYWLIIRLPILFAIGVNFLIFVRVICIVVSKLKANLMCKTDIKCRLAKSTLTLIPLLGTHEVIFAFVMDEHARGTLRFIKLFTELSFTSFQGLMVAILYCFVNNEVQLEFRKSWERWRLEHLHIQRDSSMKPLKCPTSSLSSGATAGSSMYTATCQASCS

B6 mice = test: Glucose tolerance test in fasted mice; type: in vivo, mouse; conditions: 10 nmol/kg IP, glucose 2 g/kg IP 30 minutes later
Procedure: To evaluate whether the relative proteolytic stability of SAH-GLP-1(16,23,30) translated into a functional benefit in vivo, glucose tolerance tests in mice were performed. Mice (n=8 per arm) were fasted overnight and administered the corresponding panel of peptides at 10 nmol/kg intraperitoneally followed by a glucose bolus (2 g/kg) 30 minutes later, and then serial serum glucose monitoring was performed over time.
In vivo efficacy testing of SAH-GLP-1 peptides. Male B6 and db/db mice (JAX 000697) at 10-12 weeks of age were housed (5 mice/cage) at a constant room temperature of 24° C. on a normal day-light cycle and provided a standard diet ad libitum. After one week of acclimatization, B6 mice (n=8 per treatment arm) were fasted for 16 hours overnight and the following morning baseline blood glucose levels were measured (Onetouch), followed by intraperitoneal (IP) injection of vehicle (saline) or the indicated peptide (10 nmol/kg). Thirty minutes later, the mice were treated with a bolus IP injection of glucose (2 g/kg, 20% aqueous solution), followed by serial blood glucose monitoring at 0, 15, 30, 60, and 120 minutes. To evaluate the comparative anti-hyperglycemic effects of peptides in db/db mice (n=8 per treatment arm), vehicle (saline) or the indicated peptide (10 nmol/kg) was injected IP and blood glucose levels monitored at 0, 15, 30, 60, and 720 minutes.

proteinase K = target: T1, proteinase K (Parengyodontium album, UniProt P06873); type: in vitro ADME
T1 construct: purchased New England Biolabs
T1 sequence (P06873 106-384): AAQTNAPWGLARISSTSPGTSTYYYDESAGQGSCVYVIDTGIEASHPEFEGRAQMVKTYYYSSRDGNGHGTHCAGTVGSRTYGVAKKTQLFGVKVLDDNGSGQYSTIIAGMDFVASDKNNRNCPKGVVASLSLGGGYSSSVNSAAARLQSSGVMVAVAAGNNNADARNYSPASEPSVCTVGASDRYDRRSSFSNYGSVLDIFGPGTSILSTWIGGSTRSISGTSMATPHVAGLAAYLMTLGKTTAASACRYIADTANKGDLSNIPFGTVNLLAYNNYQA

[1] = mouse
Procedure: Plasma Stability Testing. Peptide stability was tested in freshly drawn mouse plasma collected in lithium heparin tubes. Peptide plasma incubations were set up with 500 µL of plasma spiked with 10 µM of the individual peptides. Samples were gently shaken in an orbital shaker at 37° C., and 20 µL aliquots were removed at 0, 5, 15, 30, 60, 120, and 200 minutes and added to 150 µL of a mixture containing 50% water/50% acetonitrile to stop further degradation of the peptides. The samples were allowed to sit on ice for the duration of the assay and then transferred to a MultiScreen Solvinert 0.45 µm low-binding hydrophilic PTFE plate (Millipore). The filtrate was directly analyzed by LC/MS/MS using a Thermo BetaSil column, 2.1 × 50 mm, 5 µm. […] The percentage of remaining peptide was determined by the decrease in chromatographic peak area and log transformed to calculate the half-life.

[2] = target: GLP-1R expressed on CHO-K1 cells (cAMP Hunter eXpress GLP1R CHO-K1 GPCR Assay, Eurofins, 95-0062E2CP2S) (UniProt P43220 24-463); test: cell-based or functional assay

Molecule: HGEGTFTSD8SSYLEG#AAKEFIZWLVKGR (H-HGEGTFTSD[R8]SSYLEG[code #]AAKEFI[S8]WLVKGR-NH2; staple 10-17, 17-24) [SAH-GLP-1(A8G)(16,23,30)]
- GLP-1R internalization activity compared with the corresponding unstapled / wild-type GLP-1 peptide (human GLP-1 receptor): more active

Molecule: CC[C@H](C)[C@H](NC(=O)[C@H](Cc1ccccc1)NC(=O)[C@H](CCC(=O)O)NC(=O)[C@H](CCCCN)NC(=O)[C@H](C)NC(=O)[C@H](C)NC(=O)[C@H](CCC(N)=O)NC(=O)CNC(=O)[C@H](CCC(=O)O)NC(=O)[C@H](CC(C)C)NC(=O)[C@H](Cc1ccc(O)cc1)NC(=O)[C@H](CO)NC(=O)[C@H](CO)NC(=O)[C@@H](NC(=O)[C@H](CC(=O)O)NC(=O)[C@H](CO)NC(=O)[C@@H](NC(=O)[C@H](Cc1ccccc1)NC(=O)[C@@H](NC(=O)CNC(=O)[C@H](CCC(=O)O)NC(=O)[C@H](C)NC(=O)[C@@H](N)Cc1c[nH]cn1)[C@@H](C)O)[C@@H](C)O)C(C)C)C(=O)N[C@@H](C)C(=O)N[C@@H](Cc1c[nH]c2ccccc12)C(=O)N[C@@H](CC(C)C)C(=O)N[C@H](C(=O)N[C@@H](CCCCN)C(=O)NCC(=O)N[C@@H](CCCNC(=N)N)C(N)=O)C(C)C [GLP-1]
- control of induced hyperglycemia in glucose tolerance test (B6 mice): least effective

Molecule: CC[C@H](C)[C@H](NC(=O)[C@H](Cc1ccccc1)NC(=O)[C@H](CCC(=O)O)NC(=O)[C@H](CCCCNC(=O)COCCOCCNC(=O)COCCOCCNC(=O)CC[C@H](NC(=O)CCCCCCCCCCCCCCCCC(=O)O)C(=O)O)NC(=O)[C@H](C)NC(=O)[C@H](C)NC(=O)[C@H](CCC(N)=O)NC(=O)CNC(=O)[C@H](CCC(=O)O)NC(=O)[C@H](CC(C)C)NC(=O)[C@H](Cc1ccc(O)cc1)NC(=O)[C@H](CO)NC(=O)[C@H](CO)NC(=O)[C@@H](NC(=O)[C@H](CC(=O)O)NC(=O)[C@H](CO)NC(=O)[C@@H](NC(=O)[C@H](Cc1ccccc1)NC(=O)[C@@H](NC(=O)CNC(=O)[C@H](CCC(=O)O)NC(=O)C(C)(C)NC(=O)[C@@H](N)Cc1cnc[nH]1)[C@@H](C)O)[C@@H](C)O)C(C)C)C(=O)N[C@@H](C)C(=O)N[C@@H](Cc1c[nH]c2ccccc12)C(=O)N[C@@H](CC(C)C)C(=O)N[C@H](C(=O)N[C@@H](CCCNC(=N)N)C(=O)NCC(=O)N[C@@H](CCCNC(=N)N)C(=O)NCC(=O)O)C(C)C [semaglutide, reference compound]
- proteolysis by proteinase K (in words) (proteinase K; identical conditions as FIG. 7A, FIG. 7B): rapidly proteolyzed; also recorded: rapid proteolysis

Molecule: CC[C@H](C)[C@@H]1NC(=O)[C@H](Cc2ccccc2)NC(=O)[C@H](CCC(=O)O)NC(=O)[C@H](CCCCN)NC(=O)[C@H](C)NC(=O)[C@H](C)NC(=O)C2(CCCC=CCCCCCC[C@@](C)(NC(=O)[C@H](CC(=O)O)NC(=O)[C@H](CO)NC(=O)[C@@H](NC(=O)[C@H](Cc3ccccc3)NC(=O)[C@@H](NC(=O)CNC(=O)[C@H](CCC(=O)O)NC(=O)C(C)(C)NC(=O)[C@@H](N)Cc3c[nH]cn3)[C@@H](C)O)[C@@H](C)O)C(=O)N[C@@H](CO)C(=O)N[C@@H](CO)C(=O)N[C@@H](Cc3ccc(O)cc3)C(=O)N[C@@H](CC(C)C)C(=O)N[C@@H](CCC(=O)O)C(=O)NCC(=O)N2)CCCC=CCCCCCC[C@@](C)(C(=O)N[C@@H](Cc2c[nH]c3ccccc23)C(=O)N[C@@H](CC(C)C)C(=O)N[C@H](C(=O)N[C@@H](CCCCN)C(=O)NCC(=O)N[C@@H](CCCNC(=N)N)C(N)=O)C(C)C)NC1=O (stereo partly drawn) [SAH-GLP-1(16,23,30), HJEGTFTSD8SSYLEG#AAKEFIZWLVKGR]
- improvement of proteinase K half-life compared to the singly stapled peptides (proteinase K): 2-7 fold
- improvement of proteinase K half-life compared to wild-type / control peptide (proteinase K): over 20 fold
- half-life (proteinase K; proteinase K, 50 mM Tris-HCl, pH 7.4, peptides have the A8Aib substitution, read-out: t½ (half-life), proteinase K digestion, intact peptide by LCMS): 3.67 h
- plasma half-life relative to semaglutide [1]: nearly double
- half-life ([1]; plasma): 5.33 h

B1: SAH-GLP-1(16,23,30) A8J (peptide)
peptide: H-H[Aib]EGTFTSD[R8]SSYLEG[code #]AAKEFI[S8]WLVKGR-NH2
modifications: staple 10-17, 17-24
- cAMP induction (cAMP Hunter eXpress luminescence assay), EC50 [2]: 0.16 nM
